Measured values: US20120302573A1, “METHODS OF INHIBITING PRO MATRIX METALLOPROTEINASE ACTIVATION” (priority 2011, published 2012)

Legend:
proMMP9 = biological target: T1, proMMP9 (Homo sapiens, UniProt P14780); experiment: Activation of proMMP9 by human fetal lung fibroblast (HFL-1) cultures (Western blot); assay type: cell-based; details: 3.3 μM, 72 hrs, mAb-L51/82
T1 construct: host or cells: HFL-1
Protocol: Compound α was assessed additionally for ability to block the maturation of proMMP9 to active MMP9 in cultures of human fetal lung fibroblasts (HFL-1, American Type Culture Collection #CCL-153). Unlike rat synoviocytes, HFL-1 cells were unable to process proMMP9 to the active form without addition of neutrophil elastase. […] Rather, the function of elastase in this assay may be to inactivate tissue inhibitors of matrix metalloproteinases (TIMPs) that repress endogenous pathways of MMP9 activation (Am J Respir Crit Care Med; 1999; 159:1138-46).
HLF-1 were maintained in monolayer culture in DMEM with 10% FCS and were used between passage numbers 5-15. HLF-1 were embedded in collagen gels as described for rat SCW synoviocytes (vida supra). […] The plates were cultured an additional 72 hrs, at which time MMP9 secreted into the conditioned media was bound to gelatin-sepharose and evaluated by Western blot analysis as described for the rat synoviocyte cultures (vida supra). mAb-51/82 detected three forms of MMP9 in HFL-1 cultures. […]
A second experiment was performed to determine if the 80 kD form was mature active MMP9 and to determine the potency of Compound α as an inhibitor of MMP9 maturation in this assay. […] In the absence of Compound α, pAb-1246 readily detected MMP9 with an electrophoretic mobility of approximately 80 kD. […]

MMP9 = biological target: T2, MMP9 (Rattus norvegicus, UniProt P50282); experiment: Western blot of MMP9 forms in ankles of rats with SCW-induced arthritis; assay type: in vivo; details: day 26, mAb-L51/82
T2 construct: Pro and active MMP9 were abundantly present in ankles of SCW-induced vehicle-treated rats; from tissue; host or cells: tibia-tarsus joints (ankles) of female Lewis rats
T2 sequence (P50282 108-708): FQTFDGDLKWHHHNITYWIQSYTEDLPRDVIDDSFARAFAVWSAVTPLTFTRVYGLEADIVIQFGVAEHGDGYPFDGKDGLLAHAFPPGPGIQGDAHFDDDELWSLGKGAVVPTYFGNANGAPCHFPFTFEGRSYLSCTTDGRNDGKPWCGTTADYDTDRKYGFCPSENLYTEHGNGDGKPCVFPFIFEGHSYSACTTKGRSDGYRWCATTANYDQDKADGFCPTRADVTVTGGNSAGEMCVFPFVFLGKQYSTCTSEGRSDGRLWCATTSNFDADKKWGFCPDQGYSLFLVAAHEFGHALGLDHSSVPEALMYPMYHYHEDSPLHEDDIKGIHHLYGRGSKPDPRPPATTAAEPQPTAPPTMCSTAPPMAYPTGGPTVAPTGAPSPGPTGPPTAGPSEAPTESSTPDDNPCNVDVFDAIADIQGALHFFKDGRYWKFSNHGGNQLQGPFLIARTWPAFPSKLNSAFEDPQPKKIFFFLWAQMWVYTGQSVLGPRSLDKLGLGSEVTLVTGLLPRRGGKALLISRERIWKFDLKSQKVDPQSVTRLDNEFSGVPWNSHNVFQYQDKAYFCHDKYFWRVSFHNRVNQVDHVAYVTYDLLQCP
Protocol: Hind-limbs were skinned, severed just above the tibia-tarsus joint and below the metatarsals, and the tibia-tarsus joints (ankles) were weighed, snap frozen and pulverized on dry ice using a hammer and anvil. The pulverized tissue was suspended in 3 volumes (w:v) of ice-cold homogenization buffer containing 50 mM Tris pH 7.5, 150 mM NaCl, 5 mM EDTA, 1% Triton×100, 0.05% Brij 30, 10% dimethylsulfoxide and Complete EDTA-free Protease Inhibitor Cocktail (Roche Diagnostics). The suspended tissue was homogenized sequentially with a Kinematica AG Polytron and a Dounce homogenizer. Homogenates were centrifuged at 16,000×g for 10 min at 4° C. and the soluble fractions were saved. Dimethylsulfoxide was removed from a portion of each soluble fraction using PD MiniTrap™ G-25 desalting columns (GE Healthcare). Homogenates (0.25 mL), free of DMSO, were diluted with an equal volume of binding buffer (i.e., homogenization buffer without dimethylsufoxide) and adjusted to contain 50 μL of a 50% slurry of gelatin-conjugated sepharose. Following 2 hours of rotation at 4° C. the beads were washed twice in binding buffer and eluted in 100 μL 2×-reducing Laemmli buffer with heating to 95° C. for 5 minutes. […]

T1 sequence (P14780 20-707 limits assumed): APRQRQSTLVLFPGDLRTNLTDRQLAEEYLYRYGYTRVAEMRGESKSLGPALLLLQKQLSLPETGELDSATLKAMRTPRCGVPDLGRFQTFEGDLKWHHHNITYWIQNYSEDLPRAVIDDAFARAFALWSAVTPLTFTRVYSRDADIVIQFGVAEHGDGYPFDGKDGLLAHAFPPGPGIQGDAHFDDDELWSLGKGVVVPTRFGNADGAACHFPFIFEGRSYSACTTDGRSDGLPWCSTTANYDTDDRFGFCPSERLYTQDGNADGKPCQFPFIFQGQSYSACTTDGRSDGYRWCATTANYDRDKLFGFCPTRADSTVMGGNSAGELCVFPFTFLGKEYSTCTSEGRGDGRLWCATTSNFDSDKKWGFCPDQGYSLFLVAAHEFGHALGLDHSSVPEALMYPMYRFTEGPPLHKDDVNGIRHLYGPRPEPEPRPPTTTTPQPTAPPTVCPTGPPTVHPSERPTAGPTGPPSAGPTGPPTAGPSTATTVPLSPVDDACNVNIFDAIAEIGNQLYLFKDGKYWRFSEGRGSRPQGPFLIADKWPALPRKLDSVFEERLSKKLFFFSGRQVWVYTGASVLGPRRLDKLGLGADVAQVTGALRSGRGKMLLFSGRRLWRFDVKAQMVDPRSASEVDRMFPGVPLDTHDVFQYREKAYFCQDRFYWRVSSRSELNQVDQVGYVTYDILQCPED

Signal Total (proMMP9): 91346 INT*mm^2
abundance of proMMP9 in ankles (MMP9): did not reduce
SMILES: Cc1nc(C)c(-c2csc(Nc3cc(S(N)(=O)=O)ccc3OC(C)C)n2)s1 [Compound α, 3-(2′,4′-Dimethyl-[4,5′]bithiazolyl-2-ylamino)-4-isopropoxy-benzenesulfonamide.HBr]
